Columns and labels:
[1] = test system: Puccinia recondita f. sp. tritici; test: Fungicidal activity against Puccinia recondita f. sp. tritici / wheat / leaf disc preventative (brown rust); assay type: in vivo; conditions: foliar, wheat leaf segments, preventative (inoculated 1 day after application), compared to untreated control
Experimental: (§1) Leaf disks or leaf segments of various plant species are cut from plants grown in a greenhouse. The cut leaf disks or segments are placed in multiwell plates (24-well format) onto water agar. The leaf disks are sprayed with a test solution before (preventative) or after (curative) inoculation. Compounds to be tested are prepared as DMSO solutions (max. 10 mg/ml) which are diluted to the appropriate concentration with 0.025% Tween20 just before spraying. The inoculated leaf disks or segments are incubated under defined conditions (temperature, relative humidity, light, etc.) according to the respective test system. A single evaluation of disease level is carried out 3 to 14 days after inoculation, depending on the pathosystem. Percent disease control relative to the untreated check leaf disks or segments is then calculated.
(§2) Wheat leaf segments cv. Kanzler are placed on agar in multiwell plates (24-well format) and sprayed with the formulated test compound diluted in water. The leaf disks are inoculated with a spore suspension of the fungus 1 day after application. The inoculated leaf segments are incubated at 19° C. and 75% rh under a light regime of 12 h light/12 h darkness in a climate cabinet and the activity of a compound is assessed as percent disease control compared to untreated when an appropriate level of disease damage appears in untreated check leaf segments (7-9 days after application).

[2] = test system: Glomerella lagenarium (Colletotrichum lagenarium); test: Fungicidal activity against Glomerella lagenarium (Colletotrichum lagenarium) liquid culture / cucumber / preventative (anthracnose); assay type: cell-based; conditions: Colletotrichum orbiculare, liquid culture (PDB), growth inhibition measured photometrically 3-4 days after application, compared to untreated control
Experimental: Mycelia fragments or conidia suspensions of a fungus prepared either freshly from liquid cultures of the fungus or from cryogenic storage, are directly mixed into nutrient broth. DMSO solutions of the test compound (max. 10 mg/ml) are diluted with 0.025% Tween20 by a factor of 50 and 10 µl of this solution is pipetted into a microtiter plate (96-well format). The nutrient broth containing the fungal spores/mycelia fragments is then added to give an end concentration of the tested compound. The test plates are incubated in the dark at 24° C. and 96% relative humidity. The inhibition of fungal growth is determined photometrically after 2 to 7 days, depending on the pathosystem, and percent antifungal activity relative to the untreated check is calculated.
Conidia of the fungus from cryogenic storage are directly mixed into nutrient broth (PDB potato dextrose broth). After placing a (DMSO) solution of test compound into a microtiter plate (96-well format), the nutrient broth containing the fungal spores is added. The test plates are incubated at 24° C. and the inhibition of growth is measured photometrically 3-4 days after application.

Phakopsora pachyrhizi = test: Fungicidal activity against Phakopsora pachyrhizi / soybean / leaf disc preventative (Asian soybean rust); assay type: in vivo; conditions: foliar, soybean leaf disks, compared to untreated control
Experimental: as §1
Soybean leaf disks are placed on water agar in multiwell plates (24-well format) and sprayed with the formulated test compound diluted in water. One day after application leaf discs are inoculated by spraying a spore suspension on the lower leaf surface. After an incubation period in a climate cabinet of 24-36 hours in darkness at 20° C. and 75% rh leaf disc are kept at 20° C. with 12 h light/day and 75% rh. The activity of a compound is assessed as percent disease control compared to untreated when an appropriate level of disease damage appears in untreated check leaf disks (12-14 days after application).

[3] = test system: Puccinia recondita f. sp. tritici; test: Fungicidal activity against Puccinia recondita f. sp. tritici / wheat / leaf disc curative (brown rust); assay type: in vivo; conditions: foliar, 24 h, wheat leaf segments, curative (applied 1 day after inoculation), compared to untreated control
Experimental: as §1
as §2, with “format).” for “format) and sprayed with the formulated test compound diluted in water.”, “segments” for “disks”, “fungus. Plates are stored in darkness at 19° C. and 75% rh. The formulated test compound diluted in water is applied” for “fungus”, “inoculation.” for “application.”, “The” for “The inoculated”, “(6-8” for “(7-9”

Cc1nn(Cc2ccc(-c3noc(C(F)(F)F)n3)cc2)c(=O)o1 [Compound B-3, 5-methyl-3-[[4-[5-(trifluoromethyl)-1,2,4-oxadiazol-3-yl]phenyl]methyl]-1,3,4-oxadiazol-2-one]
pest or weed control at 200 ppm [1]: ≥ 80% | inhibition of growth at 20 ppm [2]: ≥ 80% | pest or weed control at 200 ppm (Phakopsora pachyrhizi): ≥ 80% | pest or weed control at 200 ppm [3]: ≥ 80% | melting point: 133.8 to 136 °C

O=c1ccc(Br)nn1Cc1ccc(-c2noc(C(F)(F)F)n2)cc1 [Compound C-2, 6-bromo-2-[[4-[5-(trifluoromethyl)-1,2,4-oxadiazol-3-yl]phenyl]methyl]pyridazin-3-one]
pest or weed control at 200 ppm [1]: ≥ 80% | inhibition of growth at 20 ppm [2]: ≥ 80% | pest or weed control at 200 ppm (Phakopsora pachyrhizi): ≥ 80% | pest or weed control at 200 ppm [3]: ≥ 80% | melting point: 106.5 to 107.6 °C

O=c1ccc(C(F)(F)F)cn1Cc1ccc(-c2noc(C(F)(F)F)n2)cc1 [Compound C-9, 5-(trifluoromethyl)-1-[[4-[5-(trifluoromethyl)-1,2,4-oxadiazol-3-yl]phenyl]methyl]pyridin-2-one]
pest or weed control at 200 ppm [1]: ≥ 80% | inhibition of growth at 20 ppm [2]: ≥ 80% | pest or weed control at 200 ppm (Phakopsora pachyrhizi): ≥ 80% | pest or weed control at 200 ppm [3]: ≥ 80% | melting point: 131 to 133 °C

N#Cc1cccn(Cc2ccc(-c3noc(C(F)(F)F)n3)cc2)c1=O [Compound C-7, 2-oxo-1-[[4-[5-(trifluoromethyly)-1,2,4-oxadiazol-3-yl]phenyl]methyl]pyridine-3-carbonitrile]
pest or weed control at 200 ppm [1]: ≥ 80% | inhibition of growth at 20 ppm [2]: ≥ 80% | pest or weed control at 200 ppm (Phakopsora pachyrhizi): ≥ 80% | pest or weed control at 200 ppm [3]: ≥ 80% | melting point: 178 to 180 °C

N#Cc1ccc(=O)n(Cc2ccc(-c3noc(C(F)(F)F)n3)c(F)c2F)c1 [Compound C-11, 1-[[2,3-difluoro-4-[5-(trifluoromethyl)-1,2,4-oxadiazol-3-yl]phenyl]methyl]-6-oxo-pyridine-3-carbonitrile]
pest or weed control at 200 ppm [1]: ≥ 80% | inhibition of growth at 20 ppm [2]: ≥ 80% | pest or weed control at 200 ppm (Phakopsora pachyrhizi): ≥ 80% | pest or weed control at 200 ppm [3]: ≥ 80% | melting point: 144 to 146 °C

O=c1ccccn1Cc1ccc(-c2noc(C(F)(F)F)n2)cc1 [Compound C-14, 1-[[4-[5-(trifluoromethyl)-1,2,4-oxadiazol-3-yl]phenyl]methyl]pyridin-2-one]
pest or weed control at 200 ppm [1]: ≥ 80% | inhibition of growth at 20 ppm [2]: ≥ 80% | pest or weed control at 200 ppm (Phakopsora pachyrhizi): ≥ 80% | pest or weed control at 200 ppm [3]: ≥ 80% | melting point: 142 to 144 °C

Cn1nnn(CCc2ccc(-c3noc(C(F)(F)F)n3)cc2)c1=O [Compound D-1, 1-methyl-4-[2-[4-[5-(trifluoromethyl)-1,2,4-oxadiazol-3-yl]phenyl]ethyl]tetrazol-5-one]
pest or weed control at 200 ppm [1]: ≥ 80% | inhibition of growth at 20 ppm [2]: ≥ 80% | pest or weed control at 200 ppm (Phakopsora pachyrhizi): ≥ 80% | pest or weed control at 200 ppm [3]: ≥ 80% | melting point: 92 to 94 °C

Cn1nnn(Cc2ccc(-c3noc(C(F)(F)F)n3)cc2)c1=O [Compound B-6, 1-methyl-4-[[4-[5-(trifluoromethyl)-1,2,4-oxadiazol-3-yl]phenyl]methyl]tetrazol-5-one]
pest or weed control at 200 ppm [1]: ≥ 80% | inhibition of growth at 20 ppm [2]: ≥ 80% | pest or weed control at 200 ppm (Phakopsora pachyrhizi): ≥ 80% | pest or weed control at 200 ppm [3]: ≥ 80% | melting point: 104 to 106 °C

N#Cc1ccc(=O)n(Cc2ccc(-c3noc(C(F)(F)F)n3)cc2)c1 [Compound C-13, 6-oxo-1-[[4-[5-(trifluoromethylyl)-1,2,4-oxadiazol-3-yl]phenyl]methyl]pyridine-3-carbonitrile]
pest or weed control at 200 ppm [1]: ≥ 80% | inhibition of growth at 20 ppm [2]: ≥ 80% | pest or weed control at 200 ppm (Phakopsora pachyrhizi): ≥ 80% | pest or weed control at 200 ppm [3]: ≥ 80% | melting point: 174 to 176 °C

Cc1cccc(=O)n1Cc1ccc(-c2noc(C(F)(F)F)n2)cc1 [Compound C-4, 6-methyl-1-[[4-[5-(trifluoromethyl)-1,2,4-oxadiazol-3-yl]phenyl]methyl]pyridin-2-one]
pest or weed control at 200 ppm [1]: ≥ 80% | inhibition of growth at 20 ppm [2]: ≥ 80% | pest or weed control at 200 ppm (Phakopsora pachyrhizi): ≥ 80% | pest or weed control at 200 ppm [3]: ≥ 80% | melting point: 88 to 90 °C

O=c1ccc(F)cn1Cc1ccc(-c2noc(C(F)(F)F)n2)cc1 [Compound C-6, 5-fluoro-1-[[4-[5-(trifluoromethyl)-1,2,4-oxadiazol-3-yl]phenyl]methyl]pyridin-2-one]
pest or weed control at 200 ppm [1]: ≥ 80% | inhibition of growth at 20 ppm [2]: ≥ 80% | pest or weed control at 200 ppm (Phakopsora pachyrhizi): ≥ 80% | pest or weed control at 200 ppm [3]: ≥ 80% | melting point: 125 to 126 °C

Cc1ccc(=O)n(Cc2ccc(-c3noc(C(F)(F)F)n3)cc2)c1 [Compound C-10, 5-methyl-1-[[4-[5-(trifluoromethyl)-1,2,4-oxadiazol-3-yl]phenyl]methyl]pyridin-2-one]
pest or weed control at 200 ppm [1]: ≥ 80% | inhibition of growth at 20 ppm [2]: ≥ 80% | pest or weed control at 200 ppm (Phakopsora pachyrhizi): ≥ 80% | pest or weed control at 200 ppm [3]: ≥ 80% | melting point: 174 to 176 °C

Source: patent publication US11447481B2, “Microbiocidal oxadiazole derivatives” (SYNGENTA PARTICIPATIONS AG, priority 2017, dated 2022)
